What was measured:
[1] = system: submucosal layer of the stomach wall of a pig; experiment: Local injection into submucosal layer of the stomach wall of a pig, fluorescent laparoscope view from the outside of the stomach; assay type: in vivo
Description: Then, the fabricated clusters were injected into biological tissue and the result thereof was confirmed. Specifically, submucosal layer of the stomach wall of a pig was a most suitable target of the marker administration. The fluid dispersion of 300 μl, including the clusters, was administrated on four points surrounding a metal clip placed inside the stomach by local injection.
The left and middle panels show conventional and fluorescent laparoscopic images immediately after local injection, respectively. […] It was confirmed that the clusters were sufficiently stable at the injection points. […] In this case, the exact injection positions were unclear immediately after injection as well as 6 hours after injection.
Herein, the stability was again confirmed 24 hours after the local injection of the marker. The submucosal layer of the stomach wall was a most suitable target of the marker administration. The fluid dispersion of 300 μl including clusters was administrated at two points surrounding a metal clip by local injection. The pig recovered from general anesthesia after the administration. Twenty-four hours later, laparoscopy was performed again under general anesthesia.
The optimum injection amount of the marker was verified. When the concentration of the clusters according to the example 1 was 100 μl or more, the injection points could be confirmed. The concentration thereof was preferably 200 μl or more, and is more preferably 300 μl or more. In FIG. 17, 50 μl was used. In FIG. 18, 100 μl was used. In FIG. 19, 200 μl was used. In FIG. 20, 300 μl was used.

[2] = system: stomach of the pig; experiment: Fluorescence imaging (near-infrared LED light) of the excised pig stomach after marker administration; assay type: in vivo; details: 32 hours after administration, 300 μl each at four points
Description: Then, the stomach of the pig was excised, and fluorescence and X-ray CT imaging was performed 32 hours after the marker (300 μl each at four points around a metal clip) administration.

In the case of `CC1(C)C(/C=C/C=C/C=C/C=C2\N(CCCCS(=O)(=O)O)c3ccc4ccccc4c3C2(C)C)=[N+](CCCCS(=O)(=O)[O-])c2ccc3ccccc3c21` [ICG aqueous solution, indocyanine green], the “identification of injection points in fluorescent laparoscopic image” value ([1]; 6 hours after local injection, 300 μl at four points) was “unclear”, the “distinguishability of four closely located injection points by fluorescent laparoscope” value ([1]; 18 hours after administration, 300 μl at four points) was “impossible to distinguish” and the “identification of injection points in fluorescent laparoscopic image” value ([1]; immediately after local injection) was “unclear”. The “fluorescence pattern at the injection site” value [2] was “broad diffusion of the fluorescence”.

From patent US10022459B2, “Medical tissue-marker and manufacturing method for the same” (NATIONAL UNIVERSITY CORPORATION CHIBA UNIVERSITY, priority 2011, dated 2018)
